Broadly, the half-life is the time needed for the level to fall by half in the phase considered. The Kd is a measure of binding affinity in units of concentration.

Read-outs that look alike come from different tables or passages of the source.

Data on three compounds can be found in patent US9884122B2, “Small molecule drug conjugates” (Philochem AG, priority 2014, dated 2018).

Data set [1] relates to CAIX positive SKRC52 cells. Nature of the data set: Ligand internalization analysis by flow cytometry, SKRC52. The data set is classed as cell-based, human. On the procedure: SKRC52 or A549 cells were seeded in 6-well plates in their appropriate culture medium (2 mL) at a density of 1.5×10^5 cells per well and allowed to grow for 24 h under culture conditions. The medium was replaced with medium containing IRDye750 (Licor) labeled probes 1c or 6c (2 mL, 30 nM) and plates incubated for 1, 2 or 4 h under standard culture conditions. After washing with PBS pH 7.4 (2×2 mL), Trypsin-EDTA 0.05% (500 μL, Invitrogen) was added and plates incubated under standard culture conditions for 15 min Medium (500 μL) was added, cells pelleted and resuspended in PBS pH 7.4 containing 1% v/v FCS (150 μL). After incubating for 15 min on ice, cells were labeled for 30 min on ice with rabbit anti human CAIX IgG (1:100, Santa Cruz) in PBS pH 7.4 containing 1% FCS (150 μL), washed with PBS pH 7.4 containing 1% FCS (2×150 μL) and labeled for 30 min on ice with goat anti rabbit IgG Alexa488 conjugate (1:100, Invitrogen) in PBS pH 7.4 containing 1% FCS (150 μL). After washing with PBS pH 7.4 containing 1% FCS (2×150 μL), cells were pelleted and resuspended in PBS pH 7.4 containing 1% v/v FCS and propidium iodide (300 μL, 1 μg mL^−1, Invitrogen) and analyzed on a FACS Canto flow cytometer (BD Bioscience). FlowJo Version 8.7 (Treestar) was used for data analysis and visualization. To inhibit uptake mechanisms, cells were pre-incubated with medium containing 0.2% NaN3 for 1 h and the NaN3 concentration maintained throughout the entire experiment. Alternatively, all steps were performed at 0° C. or an excess of AAZ (100 μM) was added to the culture medium.
For orientation: Flow cytometry measures light scatter and fluorescence of single cells or particles in a stream.

The next data set is described as follows: in vivo. Conditions: balb/c nu/nu, mouse, iv.
The subject of data set [2] is subcutaneous SKRC52 tumors. The conditions noted are these: for tumor targeting by near infrared imaging: 3 nmol intravenous, 1-12 h.
Protocol: SKRC52 cells were grown to 80% confluence and detached with Trypsin-EDTA 0.05% (Invitrogen). Cells were washed with PBS pH 7.4 once, counted and resuspended in PBS to a final concentration of 6.7×10^7 cells mL^−1. Athymic balb/c nu/nu mice, 8-10 weeks of age (Charles River) were anesthetized with isofluorane and aliquots of 1×10^7 cells (150 μL of suspension) injected subcutaneously into their lower back.
Food and water was given ad libitum during that period.
Mice were subsequently sacrificed by cervical dislocation.
In data set [3] the test system is subcutaneous SKRC52 tumors. Conditions: mouse, in vivo.
Protocol: (§1) After 1 h, 2 h or 4 h animals were sacrificed, organs extracted as above, cut into small pieces, weighed and suspended in 1:1 w/v organ homogenization buffer containing EDTA (40 mM), proteinase K (6 mg/ml), Triton X-100 (1.6 μl/ml) and trace amounts of DNase 1 in PBS pH 7.4 (100 μL per 100 mg of tissue). The suspension was homogenized on a TissueLyser organ homogenizer (Quiagen, 25 Hz, 10 min), incubated for 2 h at room temperature and 100 μL of the homogenate transferred to a black 96-well plate. […] Fluorescent images of plates were recorded on an IVIS Spectrum imaging system (Xenogen, parameters as above) and analyzed using Living Image software version 4.3.1 (Caliper Life Science) using the built-in region of interest (ROI) tools. Dye concentrations in organ samples in % of injected dose per gram of tissue (% ID g^−1) were inferred from fluorescence intensities originating from the corresponding well by comparison with the standard dilution series.
Data set [4] deals with CAIX expressing SKRC52 cells. Nature of the data set: Ligand binding analysis by flow cytometry, SKRC52. The class given is cell-based, human. Conditions: 30 nM dye conjugate, 1 h at 0° C., washed. On the procedure: Cells were detached from culture plates using a 50 mM EDTA solution in phosphate buffered saline (PBS) pH 7.4, counted and suspended to a final concentration of 1.5×10^6 cells mL^−1 in a 1% v/v solution of FCS in PBS pH 7.4. Aliquots of 3×10^5 cells (200 μL) were spun down and resuspended in solutions of IRDye750 (Licor) labeled ligands (30 nM) in a 1% v/v solution of FCS in PBS pH 7.4 (200 μL) and incubated on ice for 1 h. Cells were washed once with 200 μL 1% v/v solution of FCS in PBS pH 7.4 (200 μL), spun down, resuspended in 1% v/v solution of FCS in PBS pH 7.4 (300 μL) and analyzed on a FACS Canto flow cytometer (BD Bioscience). FlowJo Version 8.7 (Treestar) was used for data analysis and visualization. Results were as follows: • (1) Flow cytometry analysis of binding of ligand-IRDye750 conjugates 1c-6c (FIG. 1) to CAIX expressing SKRC52 cells.
Flow cytometry was performed as described above with monovalent and bivalent near infrared dye conjugates B3 and B4 and negative control conjugates lacking the ligand on CAIX-positive SKRC52 cells and CAIX-negative HEK cells^5.

Another data set addresses T1, CAIX (Homo sapiens, UniProt Q16790).
T1 construct: His6; made in house
Nature of the data set: Affinity determination of CAIX ligands by fluorescence polarization. The data set is classed as binding. Conditions: PBS pH 7.4, 22° C., 1 h; read-out: Kd by fluorescence polarization in solution. The procedure: Fluorescein labelled ligands (5 nM diluted with PBS from DMSO stocks, final DMSO content adjusted to 0.001%) were incubated at 22° C. for 1 h in a black 384-well plate (Greiner, non-binding) in PBS (pH 7.4) with increasing concentrations of CAIX to a final volume of 60 μl. The fluorescence anisotropy was measured on a Spectra Max Paradigm multimode plate reader (Molecular Devices). Experiments were performed in triplicate and the mean anisotropy values fitted to the following equation using KaleidaGraph 4.1.3 (Synergy Software),
[formula] where A is the anisotropy, [P]0 the total protein concentration, [L]0 the total concentration of the fluorescently labelled ligand and KD the dissociation constant.
On the technique in general: Fluorescence polarisation rises when a labelled molecule tumbles more slowly, as on binding a larger partner.

Protocol for in vivo: as §1

Consider `CC1(C)C(/C=C/C2=C(c3ccc(CCCCC(=O)NCCOCCOCCNC(=O)CCC(=O)Nc4nnc(S(N)(=O)=O)s4)cc3)C(=C/C=C3/N(CCCCS(=O)(=O)O)c4ccc(S(=O)(=O)[O-])cc4C3(C)C)/CCC2)=[N+](CCCCS(=O)(=O)O)c2ccc(S(=O)(=O)O)cc21` [Compound 1c, N1-(2-(2-(2-aminoethoxy)ethoxy)ethyl)-N4-(5-sulfamoyl-1,3,4-thiadiazol-2-yl)succinamide IRDye750 conjugate], for which the “internalization with extended incubation time” value in data set [1] (30 nM at 37° C., 2 h and 4 h versus 1 h) is “did not see a markedly increased signal”. For the same compound, the “internalization under conditions inhibiting uptake” value in data set [1] (30 nM, 0.2% w/v NaN3, same with excess AAZ or at 0° C.) was “fluorescent signal was shifted to baseline”. For the same compound, the “internalization: fluorescence after trypsin detachment” value in data set [1] (30 nM, 1 h at 37° C.) is listed as “higher fluorescence intensity than cells treated with non-binding conjugate 6c or untreated cells”. For the same compound, the half-life in the data set “in vivo” was approximately 1 h. Moreover, the “tumor visibility by near infrared imaging” value in data set [2] (1 nmol intravenous, 1 h) was “the tumor could clearly be seen against background”. Moreover, the “tumor targeting by near infrared imaging” value in data set [2] is “gave good tumor to background contrast”. In data set [3], the “tumor to heart ratio” value is 27.6:1; the tumor-to-blood ratio is recorded as 79.2:1; the “tumor-to-organ ratio, kidneys” value is given as 1.4:1; the “tumor-to-organ ratio, liver” value is listed as 0.2:1. For the same compound, in data set [3] (iv), the tumor-to-blood ratio is listed as 13.8:1. Besides, in data set [4], the “binding to SKRC52 cells (fluorescence shift)” value is on record as “binds strongly enough to result in a strong fluorescence shift after washing of cells”.
For `CC(C)(C)OC(=O)NCCOCCOCCNC(=O)CCCCc1ccc(C2=C(/C=C/C3=[N+](CCCCS(=O)(=O)O)c4ccc(S(=O)(=O)O)cc4C3(C)C)CCC/C2=C\C=C2\N(CCCCS(=O)(=O)O)c3ccc(S(=O)(=O)[O-])cc3C2(C)C)cc1` [Compound 6c, reference compound], the “tumor targeting by near infrared imaging” value in data set [2] was “does not reach the tumor”. Also, the “accumulation in extracted tumor and organs (imaging)” value in data set [2] (mouse, in vivo) was “very little tumor or organ accumulation”. Further, the “binding to SKRC52 cells (fluorescence shift)” value in data set [4] is recorded as “only shows little residual binding”.
With `CC(CCC(=O)N[C@@H](CC(=O)N[C@@H](CC(=O)N[C@@H](CCCCn1cc(CCCC(=O)Nc2nnc(S(N)(=O)=O)s2)nn1)C(=O)NCCOCCOCCN)C(=O)O)C(=O)O)(c1ccc(O)cc1)c1ccc(O)cc1` [Compound C5a, N-[4,4-bis(4-hydroxyphenyl)pentanoyl]-β-aspartyl-β-aspartyl-N-{2-[2-(2-aminoethoxy)ethoxy]ethyl}-6-(4-{4-oxo-4-[(5-sulfamoyl-1,3,4-thiadiazol-2-yl)amino]butyl}-1H-1,2,3-triazol-1-yl)-L-norleucinamide], the Kd on CAIX worked out at 0.2 ± 0.1 nM.
